Experimental data reported in US20230183193A1, “4-DIFLUOROMETHYL BENZOYL AMIDES WITH HERBICIDAL ACTION” (BAYER CROPSCIENCE AKTIENGESELLSCHAFT, priority 2017, published 2023).

Key:
Format in all cases: in vivo
[1] = tested on: Setaria viridis; test: Pre-emergence herbicidal action, SETVI; details: dosage 320 g/ha, scored visually after 3 weeks vs untreated controls
Source text: (§1) 1. Pre-Emergence Herbicidal Action Against Harmful Plants Seeds of monocotyledonous and dicotyledonous weed plants and crop plants are laid out in sandy loam soil in wood-fiber pots and covered with soil. The compounds of the invention, formulated in the form of wettable powders (WP) or as emulsion concentrates (EC), are then applied to the surface of the covering soil in the form of an aqueous suspension or emulsion at a water application rate equating to […], with addition of 0.2% wetting agent. After the treatment, the pots are placed in a greenhouse and kept under good growth conditions for the trial plants. The damage to the test plants is scored visually after a test period of 3 weeks by comparison with untreated controls (herbicidal activity in percent (%): 100% activity=the plants have died, 0% activity=like control plants).
(§2) For comparison, the herbicidal activity of numerous compounds according to the invention was tested with the structurally closest compounds known from the documents WO 2011/035874, WO 2012/028579 and WO 2012/126932, by the pre- and post-emergence method.

[2] = tested on: Stellaria media; test: Post-emergence herbicidal action, STEME; details: 80 g/ha, Table D
Procedure: (§3) Seeds of monocotyledonous and dicotyledonous weed and crop plants are laid out in sandy loam soil in wood-fiber pots, covered with soil and cultivated in a greenhouse under good growth conditions. 2 to 3 weeks after sowing, the test plants are treated at the one-leaf stage. The compounds of the invention, formulated in the form of wettable powders (WP) or as emulsion concentrates (EC), are then sprayed onto the green parts of the plants in the form of an aqueous suspension or emulsion at a water application rate equating to […], with addition of 0.2% wetting agent. After the test plants have been left to stand in the greenhouse under optimal growth conditions for about 3 weeks, the action of the preparations is assessed visually in comparison to untreated controls (herbicidal action in percent (%): 100% activity=the plants have died, 0% activity=like control plants). […] At the same time, inventive compounds leave Gramineae crops such as barley, wheat, rye, millet/sorghum, corn or rice virtually undamaged when applied post-emergence, even at high active compound dosages. In addition, some substances are also harmless to dicotyledonous crops such as soya, cotton, oilseed rape, sugar beet or potatoes. Some of the compounds according to the invention have high selectivity and are therefore suitable for controlling unwanted vegetation in agricultural crops by the post-emergence method. The data of Tables C and D below illustrate, in an exemplary manner, the […] herbicidal action of the compounds according to the invention, the herbicidal activity being stated in percent.
as §2

[3] = tested on: Abutilon theophrasti; test: Pre-emergence herbicidal action, ABUTH; details: dosage 320 g/ha, scored visually after 3 weeks vs untreated controls
Source text: as §1, §2

[4] = tested on: Avena fatua; test: Pre-emergence herbicidal action, AVEFA; details: dosage 320 g/ha, scored visually after 3 weeks vs untreated controls
Source text: as §1, §2

[5] = tested on: Amaranthus retroflexus; test: Pre-emergence herbicidal action, AMARE; details: dosage 320 g/ha, scored visually after 3 weeks vs untreated controls
Source text: as §1, §2

[6] = tested on: Cyperus serotinus; test: Pre-emergence herbicidal action, CYPES; details: dosage 320 g/ha, scored visually after 3 weeks vs untreated controls
Source text: as §1, §2

[7] = tested on: Alopecurus myosuroides; test: Post-emergence herbicidal action, ALOMY; details: 80 g/ha, Table C
Procedure: as §3, §2

[8] = tested on: Avena fatua; test: Post-emergence herbicidal action, AVEFA; details: 80 g/ha, Table C
Procedure: as §3, §2

[9] = tested on: Setaria viridis; test: Post-emergence herbicidal action, SETVI; details: 80 g/ha, Table C
Procedure: as §3, §2

[10] = tested on: Viola tricolor; test: Pre-emergence herbicidal action, VIOTR; details: dosage 320 g/ha, scored visually after 3 weeks vs untreated controls
Source text: as §1, §2

[11] = tested on: Abutilon theophrasti; test: Post-emergence herbicidal action, ABUTH; details: 80 g/ha, Table D
Procedure: as §3, §2

[12] = tested on: Pharbitis purpureum; test: Post-emergence herbicidal action, PHBPU; details: 80 g/ha, Table D
Procedure: as §3, §2

[13] = tested on: ECHCG; test: Post-emergence herbicidal action, ECHCG; details: 80 g/ha, Table C
Procedure: as §3

[14] = tested on: Alopecurus myosuroides; test: Pre-emergence herbicidal action, ALOMY; details: dosage 320 g/ha, scored visually after 3 weeks vs untreated controls
Source text: as §1, §2

[15] = tested on: Amaranthus retroflexus; test: Post-emergence herbicidal action, AMARE; details: 80 g/ha, Table D
Procedure: as §3, §2

[16] = tested on: Matricaria inodora; test: Pre-emergence herbicidal action, MATIN; details: dosage 320 g/ha, scored visually after 3 weeks vs untreated controls
Source text: as §1, §2

[17] = tested on: Viola tricolor; test: Post-emergence herbicidal action, VIOTR; details: 80 g/ha, Table D
Procedure: as §3, §2

[18] = tested on: Stellaria media; test: Pre-emergence herbicidal action, STEME; details: dosage 320 g/ha, scored visually after 3 weeks vs untreated controls
Source text: as §1, §2

Structure (SMILES): CCn1nnnc1NC(=O)c1ccc(C(F)F)c([S+](C)[O-])c1C (centres unmarked) [Example 2-2]
- herbicidal activity SETVI [1]: 100%
- Herbicidal activity STEME [2]: 100%
- herbicidal activity ABUTH [3]: 100%
- herbicidal activity AVEFA [4]: 100%
- herbicidal activity AMARE [5]: 100%
- herbicidal activity CYPES [6]: 90%
- herbicidal activity ALOMY [7]: 90%
- herbicidal activity AVEFA [8]: 90%
- herbicidal activity SETVI [9]: 100%
- herbicidal activity VIOTR [10]: 100%
- herbicidal activity ABUTH [11]: 90%
- Herbicidal activity PHBPU [12]: 90%
- Herbicidal activity ECHCG [13]: 90%
- herbicidal activity ALOMY [14]: 100%
- herbicidal activity AMARE [15]: 80%
- herbicidal activity MATIN [16]: 100%
- herbicidal activity VIOTR [17]: 100%

Structure (SMILES): CCSc1c(C(F)F)ccc(C(=O)Nc2nnc(C)o2)c1Cl [Example 7-50]
- herbicidal activity SETVI [1]: 100%
- Herbicidal activity STEME [2]: 90%
- herbicidal activity ABUTH [3]: 100%
- herbicidal activity AVEFA [4]: 100%
- herbicidal activity AMARE [5]: 90%
- herbicidal activity CYPES [6]: 90%
- herbicidal activity ALOMY [7]: 90%
- herbicidal activity AVEFA [8]: 90%
- herbicidal activity SETVI [9]: 100%
- herbicidal activity VIOTR [10]: 100%
- herbicidal activity ABUTH [11]: 100%
- Herbicidal activity ECHCG [13]: 100%
- herbicidal activity ALOMY [14]: 100%
- herbicidal activity AMARE [15]: 90%
- Herbicidal activity STEME [18]: 100%
- herbicidal activity MATIN [16]: 90%
- herbicidal activity VIOTR [17]: 100%

Structure (SMILES): CCn1nnnc1NC(=O)c1ccc(C(F)F)c(SC)c1C [Example 2-1]
- herbicidal activity SETVI [1]: 100%
- Herbicidal activity STEME [2]: 100%
- herbicidal activity ABUTH [3]: 100%
- herbicidal activity AVEFA [4]: 100%
- herbicidal activity AMARE [5]: 100%
- herbicidal activity ALOMY [7]: 90%
- herbicidal activity AVEFA [8]: 100%
- herbicidal activity SETVI [9]: 90%
- herbicidal activity VIOTR [10]: 100%
- herbicidal activity ABUTH [11]: 90%
- Herbicidal activity PHBPU [12]: 100%
- Herbicidal activity ECHCG [13]: 90%
- herbicidal activity ALOMY [14]: 90%
- herbicidal activity AMARE [15]: 100%
- herbicidal activity MATIN [16]: 100%
- herbicidal activity VIOTR [17]: 100%

Structure (SMILES): CCSc1c(C(F)F)ccc(C(=O)Nc2nnc(C)o2)c1C [Example 7-4]
- herbicidal activity SETVI [1]: 100%
- Herbicidal activity STEME [2]: 90%
- herbicidal activity ABUTH [3]: 100%
- herbicidal activity AMARE [5]: 100%
- herbicidal activity ALOMY [7]: 90%
- herbicidal activity AVEFA [8]: 90%
- herbicidal activity SETVI [9]: 100%
- herbicidal activity VIOTR [10]: 100%
- Herbicidal activity ECHCG [13]: 100%
- herbicidal activity ALOMY [14]: 90%
- herbicidal activity AMARE [15]: 100%
- Herbicidal activity STEME [18]: 90%
- herbicidal activity MATIN [16]: 80%
- herbicidal activity VIOTR [17]: 100%

Structure (SMILES): CCCn1nnnc1NC(=O)c1ccc(C(F)F)c([S+](C)[O-])c1C (centres unmarked) [Example 3-2]
- herbicidal activity SETVI [1]: 100%
- Herbicidal activity STEME [2]: 100%
- herbicidal activity ABUTH [3]: 100%
- herbicidal activity AVEFA [4]: 90%
- herbicidal activity AMARE [5]: 100%
- herbicidal activity CYPES [6]: 80%
- herbicidal activity ALOMY [7]: 90%
- herbicidal activity AVEFA [8]: 90%
- herbicidal activity SETVI [9]: 100%
- herbicidal activity VIOTR [10]: 100%
- herbicidal activity ABUTH [11]: 80%
- Herbicidal activity PHBPU [12]: 90%
- Herbicidal activity ECHCG [13]: 90%
- herbicidal activity ALOMY [14]: 90%
- Herbicidal activity STEME [18]: 90%
- herbicidal activity MATIN [16]: 100%
- herbicidal activity VIOTR [17]: 100%

Structure (SMILES): CCSc1c(C(F)F)ccc(C(=O)Nc2nnnn2C)c1CC [Example 1-16]
- herbicidal activity SETVI [1]: 100%
- Herbicidal activity STEME [2]: 100%
- herbicidal activity ABUTH [3]: 100%
- herbicidal activity AVEFA [4]: 100%
- herbicidal activity AMARE [5]: 100%
- herbicidal activity CYPES [6]: 100%
- herbicidal activity ALOMY [7]: 90%
- herbicidal activity AVEFA [8]: 90%
- herbicidal activity SETVI [9]: 90%
- herbicidal activity VIOTR [10]: 100%
- herbicidal activity ABUTH [11]: 100%
- Herbicidal activity ECHCG [13]: 90%
- herbicidal activity ALOMY [14]: 100%
- herbicidal activity AMARE [15]: 100%
- Herbicidal activity STEME [18]: 100%
- herbicidal activity MATIN [16]: 100%
- herbicidal activity VIOTR [17]: 100%
